{"source": "patent US4879376A", "about": "“Triterpene saponins having anti-inflammatory, mucolytic and antiedemic activities, process for the preparation thereof and pharmaceutical compositions containing them” (priority 1986, dated 1989)", "key": {"mucus excretion": {"test_system": "mucus excretion", "assay": "Mucolytic / expectorant activity (sodium fluorescein excretion)", "assay_type": "in vivo", "conditions": "mouse"}, "[1]": {"test_system": "carrageenin oedema on rat paw", "assay": "Antioedema activity (carrageenin oedema test)", "assay_type": "in vivo", "description": "(b) Antioedema activity (carrageenin oedema test) Antioedema activity was evaluated in the test of carrageenin oedema on rat paw, after oral and topical administration."}, "phenylquinone writhing": {"test_system": "phenylquinone writhing", "assay": "Analgesic activity (phenylquinone writhing test)", "assay_type": "in vivo", "conditions": "mouse", "source_text": "(c) Analgesic activity (phenylguinone writhing test)"}, "rat": {"test_system": "rat", "conditions": "in vivo, po", "source_text": "| ^a maximal nondiarrhoic dose"}}}
{"molecule": "CC1=CCC(C(C)(C)O)CC1O", "note": "(centres unmarked) [Sobrerol]", "values": [{"measurement": "% increase of sodium fluorescein excretion in comparison with controls", "setting": "mucus excretion; 150 × 1 mg/kg", "value": "+67%"}]}
{"molecule": "CN(Cc1cc(Br)cc(Br)c1N)C1CCCCC1", "note": "[Bromhexin, Bromhexine]", "values": [{"measurement": "% increase of sodium fluorescein excretion in comparison with controls", "setting": "mucus excretion; 75 × 1 mg/kg", "value": "+48%"}]}
{"molecule": "CCCCC1C(=O)N(c2ccccc2)N(c2ccccc2)C1=O", "note": "[Phenylbutazone]", "values": [{"measurement": "% change in paw oedema versus controls", "setting": "[1]; 1 hour, 100 mg/kg os", "value": -38, "unit": "%"}, {"measurement": "% change in paw oedema versus controls", "setting": "[1]; 2 hours, 100 mg/kg os", "value": -30, "unit": "%"}, {"measurement": "% change in paw oedema versus controls", "setting": "[1]; 3 hours, 100 mg/kg os", "value": -58, "unit": "%"}, {"measurement": "% change in paw oedema versus controls", "setting": "[1]; 4 hours, 100 mg/kg os", "value": -54, "unit": "%"}, {"measurement": "% change in paw oedema versus controls", "setting": "[1]; 5 hours, 100 mg/kg os", "value": -47, "unit": "%"}]}
{"molecule": "CC(=O)Oc1ccccc1C(=O)O", "note": "[ASA, acetylsalicylic acid]", "values": [{"measurement": "% Variation in comparison with controls", "setting": "phenylquinone writhing; 50 mg/kg os", "value": -31, "unit": "%"}, {"measurement": "% Variation in comparison with controls", "setting": "phenylquinone writhing; 100 mg/kg os", "value": -32, "unit": "%"}, {"measurement": "% change in paw oedema versus controls", "setting": "[1]; 1 hour, 200 mg/kg os", "value": -51, "unit": "%"}, {"measurement": "% change in paw oedema versus controls", "setting": "[1]; 2 hours, 200 mg/kg os", "value": -39, "unit": "%"}, {"measurement": "% change in paw oedema versus controls", "setting": "[1]; 3 hours, 200 mg/kg os", "value": -52, "unit": "%"}, {"measurement": "% change in paw oedema versus controls", "setting": "[1]; 4 hours, 200 mg/kg os", "value": -45, "unit": "%"}, {"measurement": "% change in paw oedema versus controls", "setting": "[1]; 5 hours, 200 mg/kg os", "value": -42, "unit": "%"}]}
{"molecule": "Escine", "values": [{"measurement": "maximal nondiarrhoic dose", "setting": "rat", "value": 50, "unit": "mg/kg"}, {"measurement": "% change in paw oedema versus controls", "setting": "[1]; 1 hour, 50 mg/kg os (maximal nondiarrhoic dose)", "value": -39, "unit": "%"}, {"measurement": "% change in paw oedema versus controls", "setting": "[1]; 2 hours, 50 mg/kg os (maximal nondiarrhoic dose)", "value": -44, "unit": "%"}, {"measurement": "% change in paw oedema versus controls", "setting": "[1]; 3 hours, 50 mg/kg os (maximal nondiarrhoic dose)", "value": -51, "unit": "%"}, {"measurement": "% change in paw oedema versus controls", "setting": "[1]; 4 hours, 50 mg/kg os (maximal nondiarrhoic dose)", "value": -49, "unit": "%"}, {"measurement": "% change in paw oedema versus controls", "setting": "[1]; 5 hours, 50 mg/kg os (maximal nondiarrhoic dose)", "value": -35, "unit": "%"}]}
